Measurements published in patent publication US7550510B2, “Solid phase synthesis of arylretinamides” (Wisconsin Alumni Research Foundation, priority 2001, dated 2009).

system: not given; test: not given; settings: not given

| Structure (SMILES) | melting point [°C] |
| --- | --- |
| CC1=C(/C=C/C(C)=C/C=C/C(C)=C/C(=O)Nc2ccc([N+](=O)[O-])cc2O)C(C)(C)CCC1 [Compound 18, N-(2′-hydroxy-4′-nitrophenyl)retinamide] | 152 to 153.5 |
| CC1=C(/C=C/C(C)=C/C=C/C(C)=C/C(=O)Nc2cccc(O)c2C)C(C)(C)CCC1 [Compound 8, N-(3′-hydroxy-2′-methylphenyl)retinamide] | 176 to 176.5 |
| CC1=C(/C=C/C(C)=C/C=C/C(C)=C/C(=O)Nc2ccccc2CO)C(C)(C)CCC1 [Compound 31, N-(2′-hydroxymethylphenyl)retinamide] | 72 to 74 |
| CC1=C(/C=C/C(C)=C/C=C/C(C)=C/C(=O)Nc2ccc(O)c([N+](=O)[O-])c2)C(C)(C)CCC1 [Compound 17, N-(4′-hydroxy-3′-nitrophenyl)retinamide] | 157 to 159.5 |
| CC1=C(/C=C/C(C)=C/C=C/C(C)=C/C(=O)Nc2ccc(O)cc2[N+](=O)[O-])C(C)(C)CCC1 [Compound 16, N-(4′-hydroxy-2′-nitrophenyl)retinamide] | 112 to 117 |
| CC1=C(/C=C/C(C)=C/C=C/C(C)=C/C(=O)Nc2cc(Cl)c(C)c(Cl)c2O)C(C)(C)CCC1 [Compound 15, N-(3′,5′-dichloro-2′-hydroxy-4′-methylphenyl)retinamide] | 140 to 142 |
| CC1=C(/C=C/C(C)=C/C=C/C(C)=C/C(=O)Nc2ccc(C)cc2O)C(C)(C)CCC1 [Compound 3, N-(2′-hydroxy-4′-methylphenyl)retinamide] | 146 to 147.5 |
| CC1=C(/C=C/C(C)=C/C=C/C(C)=C/C(=O)Nc2ccc(O)cc2Cl)C(C)(C)CCC1 [Compound 10, N-(2′-chloro-4′-hydroxyphenyl)retinamide] | 131.5 to 132.5 |
| CC1=C(/C=C/C(C)=C/C=C/C(C)=C/C(=O)Nc2cc(C)ccc2O)C(C)(C)CCC1 [Compound 4, N-(2′-hydroxy-5′-methylphenyl)retinamide] | 98 to 100 |
| CC1=C(/C=C/C(C)=C/C=C/C(C)=C/C(=O)Nc2cc(Cl)c(O)c(Cl)c2)C(C)(C)CCC1 [Compound 13, N-(3′,5′-dichloro-4′-hydroxyphenyl)retinamide] | 139 to 140 |
| COc1ccc(NC(=O)/C=C(C)/C=C/C=C(C)/C=C/C2=C(C)CCCC2(C)C)cc1O [Compound 9, N-(3′-hydroxy-4′-methoxyphenyl)retinamide] | 119 to 124 |
| CC1=C(/C=C/C(C)=C/C=C/C(C)=C/C(=O)Nc2cccc(CO)c2)C(C)(C)CCC1 [Compound 32, N-(3′ hydroxymethylphenyl)retinamide] | 118 to 120.5 |
| CC1=C(/C=C/C(C)=C/C=C/C(C)=C/C(=O)Nc2ccc(C)c(O)c2)C(C)(C)CCC1 [Compound 7, N-(3′-hydroxy-4′-methylphenyl)retinamide] | 172.5 to 175 |
| CC1=C(/C=C/C(C)=C/C=C/C(C)=C/C(=O)Nc2ccc(O)cc2C)C(C)(C)CCC1 [Compound 1, N-(2′-methyl-4′-hydroxyphenyl)retinamide] | 141 to 145 |
| CCS(=O)(=O)c1ccc(NC(=O)/C=C(C)/C=C/C=C(C)/C=C/C2=C(C)CCCC2(C)C)c(O)c1 [Compound 30, N-(4′-ethylsulfonyl-2′-hydroxyphenyl)retinamide] | 145 to 147 |
| CC1=C(/C=C/C(C)=C/C=C/C(C)=C/C(=O)Nc2ccc(O)c(Cl)c2)C(C)(C)CCC1 [Compound 11, N-(3′-chloro-4′-hydroxyphenyl)retinamide] | 168 to 169 |
| CC1=C(/C=C/C(C)=C/C=C/C(C)=C/C(=O)Nc2cc(C(C)(C)C)ccc2O)C(C)(C)CCC1 [Compound 5, N-(2′-hydroxy-5′-tert-butylphenyl)retinamide] | 144 to 146.5 |
| CC1=C(/C=C/C(C)=C/C=C/C(C)=C/C(=O)Nc2cc(Cl)ccc2O)C(C)(C)CCC1 [Compound 12, N-(5′-chloro-2′-hydroxyphenyl)retinamide] | 115 to 118 |
| CC1=C(/C=C/C(C)=C/C=C/C(C)=C/C(=O)Nc2cc([N+](=O)[O-])ccc2O)C(C)(C)CCC1 [Compound 19, N-(2′-hydroxy-5′-nitrophenyl)retinamide] | 151.5 to 153 |

system: MCF-7 cells; test: Inhibition of growth of cultured MCF-7 cells (cell number 48 h after a single dose); format: cell-based, human; settings: activity vs. 4-HPR standard, all at 10^−5 M, 48 hours after a single dose
Protocol: MCF-7 cells were maintained in DMEM supplemented as recommended by ATCC. Cells were plated (10,000/well) and dosed 24 h later dosed with the arylretinamide.

| Structure (SMILES) | growth inhibition |
| --- | --- |
| CC1=C(/C=C/C(C)=C/C=C/C(C)=C/C(=O)Nc2ccc([N+](=O)[O-])cc2O)C(C)(C)CCC1 [Compound 18, N-(2′-hydroxy-4′-nitrophenyl)retinamide] | ++ (++ = >50% the activity of standard) |
| CC1=C(/C=C/C(C)=C/C=C/C(C)=C/C(=O)Nc2cccc(O)c2C)C(C)(C)CCC1 [Compound 8, N-(3′-hydroxy-2′-methylphenyl)retinamide] | − |
| CC1=C(/C=C/C(C)=C/C=C/C(C)=C/C(=O)Nc2ccc(O)c([N+](=O)[O-])c2)C(C)(C)CCC1 [Compound 17, N-(4′-hydroxy-3′-nitrophenyl)retinamide] | − |
| COC(=O)c1cc(NC(=O)/C=C(C)/C=C/C=C(C)/C=C/C2=C(C)CCCC2(C)C)ccc1O [Compound 27, N-(4′-hydroxy-3′-carboxymethylphenyl)retinamide] | + (+ = <50% the activity of standard) |
| CC1=C(/C=C/C(C)=C/C=C/C(C)=C/C(=O)Nc2ccc(O)cc2)C(C)(C)CCC1 [Compound 41, N-(4′-hydroxyphenyl)retinamide, reference compound] | ++ (++ = >50% the activity of standard) |
| CC1=C(/C=C/C(C)=C/C=C/C(C)=C/C(=O)Nc2ccc(O)cc2[N+](=O)[O-])C(C)(C)CCC1 [Compound 16, N-(4′-hydroxy-2′-nitrophenyl)retinamide] | − |
| CC1=C(/C=C/C(C)=C/C=C/C(C)=C/C(=O)Nc2cc(Br)c(O)c(Br)c2)C(C)(C)CCC1 [Compound 14, N-(3′,5′-dibromo-4′-hydroxyphenyl)retinamide] | − |
| CC1=C(/C=C/C(C)=C/C=C/C(C)=C/C(=O)Nc2cc(Cl)c(C)c(Cl)c2O)C(C)(C)CCC1 [Compound 15, N-(3′,5′-dichloro-2′-hydroxy-4′-methylphenyl)retinamide] | − |
| CC1=C(/C=C/C(C)=C/C=C/C(C)=C/C(=O)Nc2ccc(C)cc2O)C(C)(C)CCC1 [Compound 3, N-(2′-hydroxy-4′-methylphenyl)retinamide] | − |
| CC1=C(/C=C/C(C)=C/C=C/C(C)=C/C(=O)Nc2ccc(O)cc2Cl)C(C)(C)CCC1 [Compound 10, N-(2′-chloro-4′-hydroxyphenyl)retinamide] | − |
| COC(=O)c1ccc(O)c(NC(=O)/C=C(C)/C=C/C=C(C)/C=C/C2=C(C)CCCC2(C)C)c1 [Compound 29, N-(2′-hydroxy-5′-carboxymethylphenyl)retinamide] | − |
| CC1=C(/C=C/C(C)=C/C=C/C(C)=C/C(=O)Nc2ccc(C(=O)O)cc2O)C(C)(C)CCC1 [Compound 22, N-(2′-hydroxy-4′-carboxyphenyl)retinamide] | − |
| CC1=C(/C=C/C(C)=C/C=C/C(C)=C/C(=O)Nc2cc(C)ccc2O)C(C)(C)CCC1 [Compound 4, N-(2′-hydroxy-5′-methylphenyl)retinamide] | − |
| CC1=C(/C=C/C(C)=C/C=C/C(C)=C/C(=O)Nc2cc(Cl)c(O)c(Cl)c2)C(C)(C)CCC1 [Compound 13, N-(3′,5′-dichloro-4′-hydroxyphenyl)retinamide] | − |
| COc1ccc(NC(=O)/C=C(C)/C=C/C=C(C)/C=C/C2=C(C)CCCC2(C)C)cc1O [Compound 9, N-(3′-hydroxy-4′-methoxyphenyl)retinamide] | − |
| CC1=C(/C=C/C(C)=C/C=C/C(C)=C/C(=O)Nc2ccc(O)c(C(=O)O)c2)C(C)(C)CCC1 [Compound 28, N-(4′-hydroxy-3′-carboxyphenyl)retinamide] | − |

| Structure (SMILES) | growth inhibition |
| --- | --- |
| CC1=C(/C=C/C(C)=C/C=C/C(C)=C/C(=O)Nc2ccc(C(=O)O)c(O)c2)C(C)(C)CCC1 [Compound 26, N-(3′-hydroxy-4′-carboxyphenyl)retinamide] | − |
| CC1=C(/C=C/C(C)=C/C=C/C(C)=C/C(=O)Nc2cccc(CO)c2)C(C)(C)CCC1 [Compound 32, N-(3′ hydroxymethylphenyl)retinamide] | + (+ = <50% the activity of standard) |
| CC1=C(/C=C/C(C)=C/C=C/C(C)=C/C(=O)Nc2ccc(C)c(O)c2)C(C)(C)CCC1 [Compound 7, N-(3′-hydroxy-4′-methylphenyl)retinamide] | + (+ = <50% the activity of standard) |
| CC1=C(/C=C/C(C)=C/C=C/C(C)=C/C(=O)Nc2ccc(O)cc2C)C(C)(C)CCC1 [Compound 1, N-(2′-methyl-4′-hydroxyphenyl)retinamide] | − |
| COC(=O)c1cccc(NC(=O)/C=C(C)/C=C/C=C(C)/C=C/C2=C(C)CCCC2(C)C)c1O [Compound 20, N-(2′-hydroxy-3′-carboxymethylphenyl)retinamide] | − |
| CCS(=O)(=O)c1ccc(NC(=O)/C=C(C)/C=C/C=C(C)/C=C/C2=C(C)CCCC2(C)C)c(O)c1 [Compound 30, N-(4′-ethylsulfonyl-2′-hydroxyphenyl)retinamide] | − |
| CC1=C(/C=C/C(C)=C/C=C/C(C)=C/C(=O)Nc2ccc(O)c(Cl)c2)C(C)(C)CCC1 [Compound 11, N-(3′-chloro-4′-hydroxyphenyl)retinamide] | + (+ = <50% the activity of standard) |
| CC1=C(/C=C/C(C)=C/C=C/C(C)=C/C(=O)Nc2cc(C)c(O)cc2C)C(C)(C)CCC1 [Compound 2, N-(4′-hydroxy-2′,5′-dimethylphenyl)retinamide] | − |
| CC1=C(/C=C/C(C)=C/C=C/C(C)=C/C(=O)Nc2ccc(N)cc2)C(C)(C)CCC1 [Compound 33, N-(4′-aminophenyl)retinamide] | + (+ = <50% the activity of standard) |
| CC1=C(/C=C/C(C)=C/C=C/C(C)=C/C(=O)Nc2c(C)cccc2O)C(C)(C)CCC1 [Compound 6, N-(2′-hydroxy-6′-methylphenyl)retinamide] | − |
| CC(C=CC1=C(C)CCCC1(C)C)=CC=CC(C)=CC(=O)Nc1ccccc1C(=O)O [Compound 44, N-(2′-carboxyphenyl)retinamide, reference compound] | + (+ = <50% the activity of standard) |
| CC1=C(/C=C/C(C)=C/C=C/C(C)=C/C(=O)Nc2cc(C(C)(C)C)ccc2O)C(C)(C)CCC1 [Compound 5, N-(2′-hydroxy-5′-tert-butylphenyl)retinamide] | − |
| CC1=C(/C=C/C(C)=C/C=C/C(C)=C/C(=O)Nc2cccc(C(=O)O)c2O)C(C)(C)CCC1 [Compound 21, N-(2′-hydroxy-3′-carboxyphenyl)retinamide] | − |
| CC1=C(/C=C/C(C)=C/C=C/C(C)=C/C(=O)Nc2cc(Cl)ccc2O)C(C)(C)CCC1 [Compound 12, N-(5′-chloro-2′-hydroxyphenyl)retinamide] | − |
| CC1=C(/C=C/C(C)=C/C=C/C(C)=C/C(=O)Nc2cc([N+](=O)[O-])ccc2O)C(C)(C)CCC1 [Compound 19, N-(2′-hydroxy-5′-nitrophenyl)retinamide] | ++ (++ = >50% the activity of standard) |

same assay, conditions: activity vs. 4-HPR standard, compound at 3.9 × 10^−6 M

| Structure (SMILES) | growth inhibition |
| --- | --- |
| CC1=C(/C=C/C(C)=C/C=C/C(C)=C/C(=O)Nc2c(O)cccc2C(=O)O)C(C)(C)CCC1 [Compound 24, N-(2′-hydroxy-6′-carboxyphenyl)retinamide] | − |

same assay, conditions: activity vs. 4-HPR standard, compound at 7.4 × 10^−6 M

| Structure (SMILES) | growth inhibition |
| --- | --- |
| CCOc1ccc(NC(=O)/C=C(C)/C=C/C=C(C)/C=C/C2=C(C)CCCC2(C)C)cc1 [Compound 45, N-(4′-ethoxyphenyl)retinamide, reference compound] | − |

system: MCF-7 cells; test: Induction of apoptosis in MCF-7 cells, TUNEL assay; format: cell-based; settings: MCF-7 human breast cancer cell line, FIG. 4
Excerpt: When DNA strands are cleaved or nicked by nucleases, a large number of 3′-hydroxyl ends are exposed. In the TUNEL assay (terminal deoxynucleotidyl transferase dUTP nick end labeling), these ends are labeled with UTP using mammalian terminal deoxynucleotidyl transferase (TdT), which covalently adds labeled nucleotides to the 3′-hydroxyl ends of these DNA fragments in a template-independent fashion. The UTP is then detected using specific probes (e.g., you can incorporate BrdUTP and then use a fluorescent anti-BrdU antibody). The assay can be used on cells in situ or the cells can be analyzed by flow cytometry.
The ability of arylretinamides 1, 7, 10, 11, 18, 19, 27, 32, 33, 41, 42, and 44 to induce apoptosis in MCF-7 cells was determined using a TUNEL assay as described in Engeland, M V; Nieland, L J W; Ramackers, F C S; Schutte, B; Reutelingsperger, CPM Cytometry 1998, 31, 1, which is specifically incorporated by reference.

| Structure (SMILES) | inducing apoptosis of cells |
| --- | --- |
| CC1=C(/C=C/C(C)=C/C=C/C(C)=C/C(=O)Nc2ccc([N+](=O)[O-])cc2O)C(C)(C)CCC1 [Compound 18, N-(2′-hydroxy-4′-nitrophenyl)retinamide] | effective at inducing apopotosis |
| CC1=C(/C=C/C(C)=C/C=C/C(C)=C/C(=O)Nc2cccc(CO)c2)C(C)(C)CCC1 [Compound 32, N-(3′ hydroxymethylphenyl)retinamide] | perhaps, 32 are effective at inducing apopotosis |
| CC1=C(/C=C/C(C)=C/C=C/C(C)=C/C(=O)Nc2ccc(C)c(O)c2)C(C)(C)CCC1 [Compound 7, N-(3′-hydroxy-4′-methylphenyl)retinamide] | effective at inducing apopotosis |
| CC1=C(/C=C/C(C)=C/C=C/C(C)=C/C(=O)Nc2ccc(O)cc2C)C(C)(C)CCC1 [Compound 1, N-(2′-methyl-4′-hydroxyphenyl)retinamide] | effective at inducing apopotosis |
| CC1=C(/C=C/C(C)=C/C=C/C(C)=C/C(=O)Nc2ccc(O)c(Cl)c2)C(C)(C)CCC1 [Compound 11, N-(3′-chloro-4′-hydroxyphenyl)retinamide] | effective at inducing apopotosis |
